Test results from publication PMC9055924 (RSC Advances, 2020).

Target: T1, TLP-1 (Prunus mume, UniProt A0ABM0NSQ8)
T1 sequence (A0ABM0NSQ8 27-249): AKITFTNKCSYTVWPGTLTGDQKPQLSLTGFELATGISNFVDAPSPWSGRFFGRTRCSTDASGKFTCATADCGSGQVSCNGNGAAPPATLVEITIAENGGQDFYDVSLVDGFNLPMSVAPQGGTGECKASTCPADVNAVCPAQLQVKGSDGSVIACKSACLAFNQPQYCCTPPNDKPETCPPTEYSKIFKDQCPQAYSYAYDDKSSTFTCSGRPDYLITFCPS
Assay: catechol oxidation, absorbance at […] nm
Assay type: biochemical
Settings: read-out: Relative activity (%) / 10 (mM)

| SMILES | activity at 10000 µM [%] |
| --- | --- |
| CCCCCCc1ccc(O)cc1O [4-Hexylresorcinol] | 15.6 ± 0.44 |
| NC(=O)CC[C@H](N)C(=O)O [L-Glutamine] | 83.5 ± 2.24 |
